Measured values published in patent publication US20250066371A1, “FLUOROALKOXYALKYLENE-DIHYDROIMIDAZO[5,1-D]TETRAZINONE COMPOUNDS AND RELATED COMPOUNDS AND THEIR USE IN TREATING MEDICAL CONDITIONS” (priority 2023, published 2025).
Structures can show the parent of a compound that is named as a salt. Where two headings read alike, the source gives them in different places.

Tests used:
Format in all cases: cell-based
[1] = tested on: LN229 gliobastoma cells MGMT+/MMR−; test: Anti-cancer assay, isogenic LN229 cells, nuclei count (Example 43); conditions: Homo sapiens, read-out: MGMT+ MMR− Activity
Excerpt: (§1) Cytotoxicity of the compounds may be measured in short-term cell viability assays against four isogenic LN229 glioblastoma cell lines engineered to be proficient or deficient in MGMT and/or MMR activity by using short hairpin RNAs (shRNAs) targeting MSH2. This approach allows for determination of the relationship between MGMT status, MMR status, and compound activity. LN229 cells are maintained in Dulbecco's Modified Eagle Medium (DMEM) supplemented with 10% fetal bovine serum, 1% Penicillin/Streptomycin, and 0.1% Fungin. DAY 0: Cells are plated into sterile 96-well plates (Corning Costar 96-well) at a concentration of 500 cells/well using a Multichannel pipettor. Then, assay plates are incubated overnight in a 37° C. 5% CO2 incubator. DAY 1: Compounds are prepared as 50 mM stocks in dimethyl sulfoxide (DMSO) and stored protected from light at room temperature (RT) until use. Prior to compound addition, a two-fold serial dilution of compound stock solutions is performed in DMSO from 30 mM to 0.117 mM in a 96-well Master plate. Vehicle control wells contain DMSO. 97 μL of media is added to each well of a new 96-well plate (Daughter plate) and 3 μL of drug solution from Master plate is added to corresponding wells in the Daughter plate resulting in a 3× plate. Three replicate dilution curves of each compound are run on each assay plate. The final concentration of compounds ranges from 300 μM to 1.171 μM (9-point, 2-fold dilution dose response curve), and the final DMSO concentration is 1%.
(§2) Assay plates are incubated for 120 hours at 37° C. in a humidified 5% CO2 incubator. DAY 5: Following incubation, cells are fixed with 4% paraformaldehyde and stained with Hoechst dye for nuclei visualization. Fixation, staining and washing is performed by using a Thermo Scientific Multidrop Combi. Images are acquired on a BioTek Cytation 5 Cell Imaging Multimode Reader and quantified using Cell Profiler image analysis software. Raw cell count data for test compounds are normalized to percent viability relative to the DMSO vehicle control.
(§3) Isogenic LN229 gliobastoma cells were maintained in Dulbecco's Modified Eagle Medium (DMEM) supplemented with 10% fetal bovine serum, 1% Penicillin/Streptomycin, and 0.1% Fungin. DAY 0: Cells were plated into sterile 96-well plates (Corning Costar 96-well) at a concentration of 500 cells/well using a Multichannel pipettor. Then, assay plates were incubated overnight in a 37° C. 5% CO2 incubator. DAY 1: Compounds were prepared as 50 mM stocks in dimethyl sulfoxide (DMSO) and stored protected from light at room temperature (RT) until use. Prior to compound addition, a two-fold serial dilution of compound stock solutions was performed in DMSO from 30 mM to 0.117 mM in a 96-well Master plate. Vehicle control wells contained DMSO. 97 μL of media was added to each well of a new 96-well plate (Daughter plate) and 3 μL of drug solution from Master plate was added to corresponding wells in the Daughter plate resulting in a 3× plate. Three replicate dilution curves of each compound were run on each assay plate. The final concentration of compounds ranged from 300 μM to 1.171 μM (9-point, 2-fold dilution dose response curve), and the final DMSO concentration was 1%.
as §2, with “plates were” for “plates are”, “cells were” for “cells are”, “washing was” for “washing is”, “Images were” for “Images are”, “compounds were” for “compounds are”

[2] = tested on: LN229 gliobastoma cells MGMT+/MMR+; test: as above; conditions: Homo sapiens, read-out: MGMT+ MMR+ Activity
Excerpt: as §1, §2, §3
as §2, with “plates were” for “plates are”, “cells were” for “cells are”, “washing was” for “washing is”, “Images were” for “Images are”, “compounds were” for “compounds are”

[3] = tested on: LN229 gliobastoma cells MGMT−/MMR−; test: Anti-cancer assay, isogenic LN229 cells, nuclei count (Examples 43, 46); conditions: Homo sapiens, read-out: MGMT− MMR− Activity
Excerpt: as §1, §2, §3
as §2, with “plates were” for “plates are”, “cells were” for “cells are”, “washing was” for “washing is”, “Images were” for “Images are”, “compounds were” for “compounds are”, “control. […]” for “control.”

[4] = tested on: LN229 gliobastoma cells MGMT−/MMR+; test: as above; conditions: Homo sapiens, read-out: MGMT− MMR+ Activity
Excerpt: as §1, §2, §3
as §2, with “plates were” for “plates are”, “cells were” for “cells are”, “washing was” for “washing is”, “Images were” for “Images are”, “compounds were” for “compounds are”, “control. […]” for “control.”

[5] = LN-229, LN229 MGMT+/MMR−, 120 hours
[6] = LN-229, LN229 MGMT+/MMR+, 120 hours
[7] = LN-229, LN229 MGMT−/MMR−, 120 hours
[8] = LN-229, LN229 MGMT−/MMR+, 120 hours

| IC50 [1, 5] [µM] | IC50 [2, 6] [µM] | IC50 [3, 7] [µM] | IC50 [4, 8] [µM] | Structure (SMILES) | IC50 ([1]; LN-229, 120 h) [µM] | IC50 ([2]; LN-229, 120 h) [µM] | IC50 ([3]; LN-229, 120 h) [µM] | IC50 ([4]; LN-229, 120 h) [µM] |
| --- | --- | --- | --- | --- | --- | --- | --- | --- |
| > 100 | > 100 | < 20 | 20 to 50 | CNC(=O)c1ncn2c(=O)n(CCOC(F)(F)F)nnc12 [Compound I-26] | – | – | – | – |
| < 20 | 20 to 50 | 20 to 50 | < 20 | O=C(NC1CC1)c1ncn2c(=O)n(CCOC(F)(F)F)nnc12 [Compound I-6, N-Cyclopropyl-4-oxo-3-(2-(trifluoromethoxy)ethyl)-3,4-dihydroimidazo[5,1-d][1,2,3,5]tetrazine-8-carboxamide] | – | – | – | – |
| > 100 | > 100 | 20 to 50 | 50 to 100 | NCCNC(=O)c1ncn2c(=O)n(CCOC(F)(F)F)nnc12 [Compound I-12, Hydrochloride Salt of N-(2-Aminoethyl)-4-oxo-3-(2-(trifluoromethoxy)ethyl)-3,4-dihydroimidazo[5,1-d][1,2,3,5]tetrazine-8-carboxamide] | – | – | – | – |
| > 100 | > 100 | 20 to 50 | 50 to 100 | O=C(NC1CCCC1)c1ncn2c(=O)n(CCOC(F)(F)F)nnc12 [Compound I-5, N-Cyclopentyl-4-oxo-3-(2-(trifluoromethoxy)ethyl)-3,4-dihydroimidazo[5,1-d][1,2,3,5]tetrazine-8-carboxamide] | – | – | – | – |
| > 100 | > 100 | > 100 | > 100 | NC(=O)c1ncn2c(=O)n(CCCOCC(F)(F)F)nnc12 [Compound I-22] | – | – | – | – |
| 50 to 100 | 50 to 100 | 20 to 50 | 20 to 50 | CN1CCN(C(=O)c2ncn3c(=O)n(CCOC(F)(F)F)nnc23)CC1 [Compound I-10, 8-(4-Methylpiperazine-1-carbonyl)-3-(2-(trifluoromethoxy)ethyl)imidazo[5,1-d][1,2,3,5]tetrazin-4(3H)-one] | – | – | – | – |
| > 100 | > 100 | > 100 | > 100 | NC(=O)c1ncn2c(=O)n(CCOC(F)F)nnc12 [Compound I-44] | – | – | – | – |
| 50 to 100 | 50 to 100 | < 20 | < 20 | N=C(N)c1ncn2c(=O)n(CCOC(F)(F)F)nnc12 [Compound I-34, 4-Oxo-3-(2-(trifluoromethoxy)ethyl)-3,4-dihydroimidazo[5,1-d][1,2,3,5]tetrazine-8-carboximidamide] | – | – | – | – |
| > 100 | > 100 | < 20 | 20 to 50 | NC(=S)c1ncn2c(=O)n(CCOC(F)(F)F)nnc12 [Compound I-31, 4-Oxo-3-(2-(trifluoromethoxy)ethyl)-3,4-dihydroimidazo[5,1-d][1,2,3,5]tetrazine-8-carbothioamide] | – | – | – | – |
| 50 to 100 | < 20 | > 100 | < 20 | O=c1n(CCOC(F)(F)F)nnc2c(-c3nc4ccccc4[nH]3)ncn12 [II-1, 8-(1H-Benzo[d]imidazol-2-yl)-3-(2-(trifluoromethoxy)ethyl)imidazo[5,1-d][1,2,3,5]tetrazin-4(3H)-one] | – | – | – | – |
| > 100 | > 100 | 20 to 50 | 50 to 100 | O=C(Nc1ccccn1)c1ncn2c(=O)n(CCOC(F)(F)F)nnc12 [Compound I-8, 4-Oxo-N-(2-pyridyl)-3-[2-(trifluoromethoxy)ethyl]imidazo[5,1-d][1,2,3,5]tetrazine-8-carboxamide] | – | – | – | – |
| 20 to 50 | 20 to 50 | 20 to 50 | 20 to 50 | Cc1cnc(-c2ncn3c(=O)n(CCOC(F)(F)F)nnc23)o1 [II-3, 8-(5-Methyloxazol-2-yl)-3-(2-(trifluoromethoxy)ethyl) imidazo[5,1-d][1,2,3,5]tetrazin-4(3H)-one] | – | – | – | – |
| – | – | – | – | O=C(Nc1ccccc1)c1ncn2c(=O)n(CCOC(F)(F)F)nnc12 [Compound I-9, 4-Oxo-N-phenyl-3-(2-(trifluoromethoxy)ethyl)-3,4-dihydroimidazo[5,1-d][1,2,3,5]tetrazine-8-carboxamide] | > 100 | 50 to 100 | < 20 | 20 to 50 |
| > 100 | > 100 | > 100 | > 100 | NC(=O)c1ncn2c(=O)n(COC(C(F)(F)F)C(F)(F)F)nnc12 [Compound I-23] | – | – | – | – |
| – | – | – | – | O=NN(CCOC(F)(F)F)C(=O)NCCOC(F)(F)F [IV-2, 1-Nitroso-1,3-bis(2-(trifluoromethoxy)ethyl)urea] | > 100 | > 100 | 20 to 50 | 50 to 100 |
| – | – | – | – | O=NN(CCOC(F)(F)F)C(=O)NC1CCCCC1 [IV-1, 3-Cyclohexyl-1-nitroso-1-(2-(trifluoromethoxy)ethyl)urea] | 20 to 50 | 20 to 50 | 20 to 50 | 20 to 50 |
| < 20 | < 20 | < 20 | 20 to 50 | Cc1cnc(-c2ncn3c(=O)n(CCOC(F)(F)F)nnc23)s1 [II-6, 8-(5-Methylthiazol-2-yl)-3-(2-(trifluoromethoxy)ethyl)imidazo[5,1-d][1,2,3,5]tetrazin-4(3H)-one] | – | – | – | – |
| > 100 | > 100 | < 20 | 20 to 50 | [2H]C([2H])(OC(F)(F)F)C([2H])([2H])n1nnc2c(C(N)=O)ncn2c1=O [Compound I-29, 4-Oxo-3-(2-(trifluoromethoxy)ethyl-1,1,2,2-d4)-3,4-dihydroimidazo[5,1-d][1,2,3,5]tetrazine-8-carboxamide] | – | – | – | – |
| < 20 | < 20 | < 20 | 20 to 50 | O=c1n(CCOC(F)(F)F)nnc2c(-c3nc4ccccc4o3)ncn12 [II-4, 8-(benzo[d]oxazol-2-yl)-3-(2-(trifluoromethoxy)ethyl) imidazo[5,1-d][1,2,3,5]tetrazin-4(3H)-one] | – | – | – | – |
| 20 to 50 | < 20 | 20 to 50 | 50 to 100 | O=c1n(CCOC(F)(F)F)nnc2c(-c3ncc(-c4ccccc4)o3)ncn12 [II-2, 8-(5-Phenyloxazol-2-yl)-3-(2-(trifluoromethoxy)ethyl)imidazo[5,1-d][1,2,3,5]tetrazin-4(3H)-one] | – | – | – | – |
| – | – | – | – | CCOC(=O)c1ncn2c(=O)n(CCOC(F)(F)F)nnc12 [Compound I-30, Ethyl 4-Oxo-3-(2-(trifluoromethoxy)ethyl)-3,4-dihydroimidazo[5,1-d][1,2,3,5]tetrazine-8-carboxylate] | > 100 | > 100 | < 20 | > 100 |
| – | – | – | – | CCNC(=O)c1ncn2c(=O)n(CCOC(F)(F)F)nnc12 [Compound I-3, N-Ethyl-4-oxo-3-(2-(trifluoromethoxy)ethyl)-3,4-dihydroimidazo[5,1-d][1,2,3,5]tetrazine-8-carboxamide] | > 100 | > 100 | 50 to 100 | 50 to 100 |
